Results as given in US6207399A, “Methods of determining endogenous thrombin potential (ETP) and thrombin substrates for use in said methods” (Hemker; Hendrik Coenraad, priority 1995, dated 2001).
Peptide text beside a SMILES is read from it. * marks the point of attachment. pNA = O=[N+]([O-])c1ccc(N*)cc1

Tests used:
[1] = target: T1, factor Xa (Homo sapiens, UniProt P00742); test: Kinetic parameters of hydrolysis of the substrates by factor Xa in buffer A at 37° C. (Example 4, Table 3); format: biochemical; set-up: key to Factor Xa kcat: NH: no hydrolysis; details: buffer A, 37° C., 50 nM factor Xa
T1 construct: human factor Xa samples; gift of Dr. T. Lindhout (University of Limburg, Maastricht)
Method in brief: (§1)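 p-Nitroaniline release followed at 405 nm in buffer A at 37 °C, with at least six substrate levels of 200–2000 μM. Thrombin at 0.5–50 nM, factor Xa at 50 nM; Km and kcat from initial velocities by linear regression on Michaelis-Menten.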

[2] = target: T2, euglobulin thrombin (Homo sapiens, UniProt P00734); test: Decay constants of thrombin in plasma; format: biochemical
T2 construct: The euglobulin thrombin fraction was prepared from defibrinated human plasma; from tissue; host or cells: defibrinated human plasma (euglobulin fraction, acid precipitation, method of Josso and Prou-Wartelle)
Procedure: (§2) To this mixture was added 10 μL of a thrombin preparation to achieve a final concentration of 100 nM. At regular time intervals (5-10 s) 10 μL samples were subsampled into 490 μL buffer B which contained 200 μM of S2238 to determine thrombin activity. After 2 min the reaction was stopped by adding 300 μL 1M citric acid. The moment of sampling and stopping were recorded on a personal computer with pushbutton-equipped pipettes. The optical density was then read at 405 nm and the obtained amidolytic activities were used to calculate the decay constants. The obtained decay constant is the sum of the decay constants of the reaction of thrombin with antithrombin III (k1) and α2 -macroglobulin (k2).
as §2, with “Decay constants of thrombin in plasma: To 120 μL defibrinated plasma was added: 50 μL of buffer A which contained the substances to be tested. To” for “To”, “was” for “was then”

[3] = target: thrombin (Homo sapiens, UniProt P00734); test: Kinetic parameters of hydrolysis of the substrates by thrombin in buffer A at 37° C. (Example 4, Table 3); format: biochemical; set-up: Pure human α-thrombin; gift of Dr. T. Lindhout (University of Limburg, Maastricht); details: buffer A, 37° C.
Method in brief: as §1

[4] = system: thrombin generation in tissue factor triggered plasma; test: Manual determination of thrombin generation in plasma (subsampling method) and calculated prothrombinase activity; format: biochemical, human
Procedure: Manual determination of thrombin generation in plasma: Extrinsic pathway: To 480 μL defibrinated plasma were added: 172 μL buffer A which contains the substrate at concentrations between 0 to 2000 μM and 20 μL of a 54 μM phospholipid solution (final concentration: 1.5 μM). After incubation of 4 min at 37° C., 24 μL tissue factor (undiluted) was added. Thrombin formation started at zero time by adding 24 μL of a 0.5 M CaCl2 solution (final concentration: 16.67 mM). At regular time intervals of 12 s samples of 10 μL were subsampled as described above. From the amidolytic activities thus obtained, the thrombin generation curve can be drawn. […] Intrinsic pathway: To 480 μL defibrinated plasma were added: 168 μL buffer A which contains the substrate at concentrations between 0 to 1000 μM and 48 μL Actin FS (undiluted). This mixture was intensively mixed and incubated for 4 min at 37° C. Thrombin generation was started at zero time by adding 24 μL of a 0.5 M CaCl2 solution (final concentration: 16.67 mM).
Influence of the substrate on the prothrombinase-complex: With the obtained decay constants and from the curves obtained by the subsampling method we calculated the course of prothrombin conversion and the course of prothrombinase concentration.
Manual determination of thrombin generation in plasma: Extrinsic pathway: To 480 μL defibrinated plasma were added: 172 μL buffer A which contained the substrate at concentrations between 0 to 2000 μM and 20 μL of a 54 μM phospholipid solution (final concentration: 1.5 μM). After incubation for 4 min at 37° C., 24 μL tissue factor (undiluted) was added. Thrombin formation started at zero time by adding 24 μL of a 0.5 M CaCl2 solution (final concentration: 16.67 mM). At regular time intervals of 12 s samples of 10 μL were subsampled as described above. From the amidolytic activities thus obtained, the thrombin generation curve can be drawn.
Influence of the substrate on the prothrombinase-compzex: With the obtained decay constants and from the curves obtained by the subsampling method we calculated the course of prothrombin conversion and the course of prothrombinase concentration.

T1 sequence (P00742 41-179 limits assumed): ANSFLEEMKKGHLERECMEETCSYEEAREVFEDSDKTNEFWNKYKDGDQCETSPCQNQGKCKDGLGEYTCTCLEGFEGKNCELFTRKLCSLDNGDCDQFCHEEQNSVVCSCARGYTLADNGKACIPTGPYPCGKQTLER
T1 sequence (P00742 235-488 limits assumed): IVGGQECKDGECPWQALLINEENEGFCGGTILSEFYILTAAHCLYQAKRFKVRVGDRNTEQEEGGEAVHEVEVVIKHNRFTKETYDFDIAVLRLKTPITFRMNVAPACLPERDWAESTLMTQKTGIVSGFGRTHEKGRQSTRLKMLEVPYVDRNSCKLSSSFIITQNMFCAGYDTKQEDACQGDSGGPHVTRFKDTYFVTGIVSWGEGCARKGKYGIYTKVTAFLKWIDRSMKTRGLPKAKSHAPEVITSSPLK

Structure (SMILES): CC(C)[C@H](N)C(=O)N[C@@H](CCCNC(=N)N)C(=O)Nc1ccc([N+](=O)[O-])cc1.Cl.Cl [2HCl.H-Val-Arg-pNA] (H-Val-Arg-pNA)
- Factor Xa kcat [1]: NH
- k1 : AT-III dependent decay of thrombin ([2]; [S] 100 μM in plasma): 2.064 min⁻¹
- k2 : α2 M dependent decay of thrombin ([2]; [S] 100 μM in plasma): 0.253 min⁻¹
- koverall ([2]; [S] 100 μM in plasma): 2.317 min⁻¹
- t1/2 ([2]; [S] 100 μM in plasma): 17.95 s
- (k1,corr) = k1,corr divided by μM AT-III ([2]; [S] 200 μM in plasma): 21430 M⁻¹ s⁻¹
- k1,corr : k1 after correcting for k2,M and 0.170 ([2]; [S] 200 μM in plasma): 1.750 min⁻¹
- k1 : AT-III dependent decay of thrombin ([2]; [S] 200 μM in plasma): 1.751 min⁻¹
- k2 : α2 M dependent decay of thrombin ([2]; [S] 200 μM in plasma): 0.402 min⁻¹
- koverall ([2]; [S] 200 μM in plasma): 2.154 min⁻¹
- t1/2 ([2]; [S] 200 μM in plasma): 19.31 s
- (k1,corr) = k1,corr divided by μM AT-III ([2]; [S] 500 μM in plasma): 18630 M⁻¹ s⁻¹
- k1,corr : k1 after correcting for k2,M and 0.170 ([2]; [S] 500 μM in plasma): 1.521 min⁻¹
- k1 : AT-III dependent decay of thrombin ([2]; [S] 500 μM in plasma): 1.509 min⁻¹
- k2 : α2 M dependent decay of thrombin ([2]; [S] 500 μM in plasma): 0.389 min⁻¹
- koverall ([2]; [S] 500 μM in plasma): 1.898 min⁻¹
- t1/2 ([2]; [S] 500 μM in plasma): 21.91 s
- (k1,corr) = k1,corr divided by μM AT-III ([2]; [S] 1000 μM in plasma): 18500 M⁻¹ s⁻¹
- k1,corr : k1 after correcting for k2,M and 0.170 ([2]; [S] 1000 μM in plasma): 1.510 min⁻¹
- k1 : AT-III dependent decay of thrombin ([2]; [S] 1000 μM in plasma): 1.676 min⁻¹
- k2 : α2 M dependent decay of thrombin ([2]; [S] 1000 μM in plasma): 0.204 min⁻¹
- koverall ([2]; [S] 1000 μM in plasma): 1.879 min⁻¹
- t1/2 ([2]; [S] 1000 μM in plasma): 27.12 s
- k1 : AT-III dependent decay of thrombin ([2]; [S] 1500 μM in plasma): 1.087 min⁻¹
- k2 : α2 M dependent decay of thrombin ([2]; [S] 1500 μM in plasma): 0.130 min⁻¹
- koverall ([2]; [S] 1500 μM in plasma): 1.217 min⁻¹
- t1/2 ([2]; [S] 1500 μM in plasma): 34.17 s
- k1 : AT-III dependent decay of thrombin ([2]; [S] 2000 μM in plasma): 0.877 min⁻¹
- k2 : α2 M dependent decay of thrombin ([2]; [S] 2000 μM in plasma): 0.128 min⁻¹
- koverall ([2]; [S] 2000 μM in plasma): 1.005 min⁻¹
- t1/2 ([2]; [S] 2000 μM in plasma): 41.37 s
- Km [3]: 1240 µM
- Thrombin kcat [3]: 0.23 s⁻¹
- Thrombin kcat /Km [3]: 186 M/s
- k2,M : k2 determined by the subsampling method ([4]; [S] 200 μM in plasma): 0.234 min⁻¹
- k2,M : k2 determined by the subsampling method ([4]; [S] 500 μM in plasma): 0.207 min⁻¹
- k2,M : k2 determined by the subsampling method ([4]; [S] 1000 μM in plasma): 0.199 min⁻¹
- influence on the prothrombinase complex / coagulation cascade ([4]; calculated from decay constants and manual thrombin generation curves): clearly decreases its concentration
